Assay results published in patent US20230157996A1, “SMALL-MOLECULE INHIBITOR TARGETING EB VIRUS NUCLEAR ANTIGEN PROTEIN, PREPARATION METHOD AND USE THEREOF” (priority 2020, published 2023).

What follows are molecules tested on C666-1 cells (assay: C666-1 cell viability single concentration (50 μM) inhibition rate (Resazurin)). Settings: 50 μM compound, 72 hours, C666-1 cells.
Format: cell-based
Summary of the method: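 Resazurin fluorescence (560/590 nm, 3 h development) gave the proliferation inhibition rate, normalised to DMSO-treated and cell-free blank wells. Compound was tested at a single 50 μmol/L final concentration on C666-1 cells for 72 h at 37° C, with duplicate wells, after 24 h seeding.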

In the case of `COC(=O)c1cccc(N2CC(Oc3ccccc3)C2)c1-n1cccc1` [Example 101, Methyl 3-(3-phenoxyazetidin-1-yl)-2-(1H-pyrrol-1-yl)benzoate], the “C666-1 cell viability single concentration (50 μM) inhibition rate, Ratio* (Inh %)” value is reported as “+++ (30%-50% +++)”.

Same assay, conditions: Homo sapiens, C6661, 72 h, 50 μM compound, 72 hours, C666-1 cells; read-out: C666-1 cell viability single concentration (50 μM) inhibition rate, Ratio* (Inh %)

Compared with `O=C(O)c1cccc(N2CC(Oc3ccc(CO)cc3)C2)c1` [Compound 35, 3-(3-(4-(hydroxymethyl)phenoxy)azetidin-1-yl)benzoic acid], `O=C(O)c1cccc(-c2c(C(=O)O)cccc2N2CC(Oc3ccc(CO)cc3)C2)c1` [Compound 56] is lower in inhibition at 50 µM: 10 to 30% for the first, less than 10% for the second.

First: COC(=O)c1cccc(N2CC3(CN(c4cccc([N+](=O)[O-])c4)C3)C2)c1[N+](=O)[O-] [Compound 25, Methyl 3-(6-(3-nitrophenyl)-2,6-diazaspiro[3.3]heptan-2-yl)-2-nitrobenzoate]
Second: CS(=O)(=O)Nc1cccc(N2CC3(C2)CN(c2cccc(C(=O)O)c2[N+](=O)[O-])C3)c1 [Compound 28, 3-(6-(3-(methylsulfonamido)phenyl)-2,6-diazaspiro[3.3]heptan-2-yl)-2-nitrobenzoic acid]
The inhibition at 50 µM of the first is higher: 10 to 30% for the first, less than 10% for the second.

Compared with `O=C(Nc1ccc(OC2CN(c3cccc(C(=O)O)c3-n3cccc3)C2)cc1)Nc1cccc(Cl)c1` [Example 134, 3-(3-(4-(3-(3-chlorophenyl)ureido)phenoxy)azetidin-1-yl)-2-(1H-pyrrol-1-yl)benzoic acid], `COC(=O)c1cccc(N2CC(Oc3ccc(NC(=O)Nc4cccc(C#N)c4)cc3)C2)c1-n1cccc1` [Example 137, Methyl 3-(3-(4-(3-(3-cyanophenyl)ureido)phenoxy)azetidin-1-yl)-2-(1H-pyrrol-1-yl)benzoate] is higher in inhibition at 50 µM: 10 to 30% for the first, greater than 50% for the second.

Compared with `COC(=O)c1cccc(N2CC(Oc3ccc(COc4cccnc4)cc3)C2)c1-n1cccc1` [Example 243, Methyl 3-(3-(4-((pyridin-3-yl-oxy)methyl)phenoxy)azetidin-1-yl)-2-(1H-pyrrol-1-yl)benzoate], `O=C(O)c1cccc(N2CC(Oc3ccc(COc4cncc(F)c4)cc3)C2)c1-n1cccc1` [Example 359, 3-(3-(4-(((5-fluoropyridin-3-yl)oxy)methyl)phenoxy)azetidin-1-yl)-2-(1H-pyrrol-1-yl)benzoic acid] is lower in inhibition at 50 µM: greater than 50% for the first, less than 10% for the second.

First: CNCCOc1ccc(OC2CN(c3cccc(C(=O)OC)c3-n3cccc3)C2)cc1 [Example 309, Methyl 3-(3-(4-(2-(methylamino)ethoxy)phenoxy)azetidin-1-yl)-2-(1H-pyrrol-1-yl)benzoate]
Second: COC(=O)c1cccc(N2CC(Oc3ccc(OCCNC(C)=O)cc3)C2)c1-n1cccc1 [Example 312, Methyl 3-(3-(4-(2-acetylaminoethoxy)phenoxy)azetidin-1-yl)-2-(1H-pyrrol-1-yl)benzoate]
The inhibition at 50 µM of the first is lower: 10 to 30% for the first, 30 to 50% for the second.

`Cc1ccc([S+]([O-])C2CN(c3cccc(C(=O)O)c3-n3cccc3)C2)cc1` (stereo not shown) [Example 193] and `COC(=O)c1cccc(N2CC(Sc3ccc(C)cc3)C2)c1-n1cccc1` [Example 190, Methyl 2-(1H-pyrrol-1-yl)-3-(3-(p-tolylthio)azetidin-1-yl)benzoate] cannot be ordered by inhibition at 50 µM: less than 10% for the first, less than 10% for the second.

First: COC(=O)c1cccc(N2CC(Oc3ccc(OCCNC(C)=O)c(OC)c3)C2)c1-n1cccc1 [Example 220, Methyl 3-(3-(4-(2-acetylaminoethoxy)-3-methoxyphenoxy)azetidin-1-yl)-2-(1H-pyrrol-1-yl)benzoate]
Second: COCCOc1ccc(OC2CN(c3cccc(C(=O)O)c3-n3cccc3)C2)cc1OCCOC [Example 307, 3-(3-(3,4-bis(2-methoxyethoxy)phenoxy)azetidin-1-yl)-2-(1H-pyrrol-1-yl)benzoic acid]
The inhibition at 50 µM of the first is higher: 10 to 30% for the first, less than 10% for the second.

`CCOc1ccc(OC2CN(c3cccc(C(=O)OC)c3-n3cccc3)C2)cc1` [Example 99, Methyl 3-(3-(4-ethoxyphenoxy)azetidin-1-yl)-2-(1H-pyrrol-1-yl)benzoate] and `COC(=O)c1cccc(N2CC(Oc3ccc(OCCN)cc3)C2)c1-n1cccc1` [Example 310, Methyl 3-(3-(4-(2-aminoethoxy)phenoxy)azetidin-1-yl)-2-(1H-pyrrol-1-yl)benzoate] cannot be ordered by inhibition at 50 µM: less than 10% for the first, less than 10% for the second.

First: COC(=O)c1cccc(N2CC(Oc3ccc(NC(=O)c4cccs4)cc3)C2)c1-n1cccc1 [Example 122, Methyl 2-(1H-pyrrol-1-yl)-3-(3-(4-(thiophene-2-formamido)phenoxy)azetidin-1-yl)benzoate]
Second: COC(=O)c1cccc(N2CC(Oc3ccc(Cl)cc3)C2)c1-n1cccc1 [Compound 95, Methyl 3-(3-(4-chlorophenoxy)azetidin-1-yl)-2-(1H-pyrrol-1-yl)benzoate]
The inhibition at 50 µM of the first is higher: 10 to 30% for the first, less than 10% for the second.

`O=C(Nc1ccc(F)cc1)c1ccc(OC2CN(c3cccc(C(=O)O)c3-n3cccc3)C2)cc1` [Example 268, 3-(3-(4-((4-fluorophenyl)carbamoyl)phenoxy)azetidin-1-yl)-2-(1H-pyrrol-1-yl)benzoic acid] and `CCC(=O)c1ccc(OC2CN(c3cccc(C(=O)O)c3-n3cccc3)C2)cc1` [Example 215, 3-(3-(4-propionylphenoxy)azetidin-1-yl)-2-(1H-pyrrol-1-yl)benzoic acid] cannot be ordered by inhibition at 50 µM: less than 10% for the first, less than 10% for the second.

First: COC(=O)c1cccc(C#CN(Cc2ccccc2F)S(=O)(=O)c2cccs2)c1-n1cccc1 [Example 324, Methyl 3-((N-(2-fluorobenzyl)thiophen-2-sulfonamido)ethynyl)-2-(1H-pyrrol-1-yl)benzoate]
Second: COC(=O)c1cccc(C#CN(Cc2ccncc2)S(=O)(=O)c2ccc(C)cc2)c1-n1cccc1 [Example 389]
The inhibition at 50 µM of the first is lower: 10 to 30% for the first, greater than 50% for the second.

Compared with `COC(=O)c1cccc(N2CC(OCc3cscn3)C2)c1-n1cccc1` [Example 140], `COC(=O)c1cccc(N2CC(Oc3cccc(CO)c3)C2)c1-n1cccc1` [Example 297, Methyl 3-(3-(3-(hydroxymethyl)phenoxy)azetidin-1-yl)-2-(1H-pyrrol-1-yl)benzoate] is higher in inhibition at 50 µM: 10 to 30% for the first, 30 to 50% for the second.

First: COC(=O)c1cccc(N2CC(Oc3ccc(N(C)C)cc3)C2)c1-n1cccc1 [Example 97, Methyl 3-(3-(4-(dimethylamino)phenoxy)azetidin-1-yl)-2-(1H-pyrrol-1-yl)benzoate]
Second: COC(=O)c1cccc(N2CC(Oc3ccc(COC4CCOC4)cc3)C2)c1-n1cccc1 (stereo not shown) [Example 375]
The inhibition at 50 µM of the first is higher: 10 to 30% for the first, less than 10% for the second.

`CC(=O)OC(c1ccc(C(F)(F)F)nc1)C12CC(c3cccc(C(=O)O)c3)(C1)C2` (stereo not shown) [Compound 2, 3-(3-(acetoxyl(6-(trifluoromethyl)pyridin-3-yl)methyl)bicyclo[1.1.1]pentan-1-yl)benzoic acid] and `O=C(O)c1cccc(N2CC3(C2)CN(c2cccc(C(=O)O)c2-n2cccc2)C3)c1` [Compound 18, 3-(6-(3-carboxylphenyl)-2,6-diazaspiro[3.3]heptan-2-yl)-2-(1H-pyrrol-1-yl)benzoic acid] cannot be ordered by inhibition at 50 µM: less than 10% for the first, less than 10% for the second.

`CC(=O)c1cccc(Oc2ccc(OC3CN(c4cccc(C(=O)O)c4-n4cccc4)C3)cc2)c1` [Example 294, 3-(3-(4-(3-acetylphenoxy)phenoxy)azetidin-1-yl)-2-(1H-pyrrol-1-yl)benzoic acid] and `O=C(O)c1cccc(N2CC(Oc3ccc(OC(F)(F)F)cc3)C2)c1-n1cccc1` [Compound 84, 2-(1H-pyrrol-1-yl)-3-(3-(4-(trifluoromethoxy)phenoxy)azetidin-1-yl)benzoic acid] cannot be ordered by inhibition at 50 µM: less than 10% for the first, less than 10% for the second.

First: O=C(O)c1cccc(N2CC3(CN(c4ccccc4[N+](=O)[O-])C3)C2)c1-n1cccc1 [Compound 22, 3-(6-(2-nitrophenyl)-2,6-diazaspiro[3.3]heptan-2-yl)-2-(1H-pyrrol-1-yl)benzoic acid]
Second: COC(=O)c1cccc(N2CC3(CN(c4ccccc4[N+](=O)[O-])C3)C2)c1-n1cccc1 [Compound 21, Methyl 3-(6-(2-nitrophenyl)-2,6-diazaspiro[3.3]heptan-2-yl)-2-(1H-pyrrol-1-yl)benzoate]
The inhibition at 50 µM of the first is lower: less than 10% for the first, 10 to 30% for the second.

`O=C(O)c1cccc(N2CC(Oc3ccc(CO)cc3)C2)c1-c1cccc(F)c1` [Compound 51] and `Cc1cc(OC2CN(c3cccc(C(=O)O)c3-n3cccc3)C2)ccc1CO` [Example 252, 3-(3-(4-(hydroxymethyl)-3-methylphenoxy)azetidin-1-yl)-2-(1H-pyrrol-1-yl)benzoic acid] cannot be ordered by inhibition at 50 µM: less than 10% for the first, less than 10% for the second.

`COC(=O)c1cccc(N2CC(NC(=S)Nc3ccc(Cl)cc3)C2)c1-n1cccc1` [Example 174, Methyl 3-(3-(3-(4-chlorophenyl)thioureido)azetidin-1-yl)-2-(1H-pyrrol-1-yl)benzoate] and `Nc1ccccc1OC1CN(c2cccc(C(=O)O)c2-n2cccc2)C1` [Example 256, 3-(3-(2-aminophenoxy)azetidin-1-yl)-2-(1H-pyrrol-1-yl)benzoic acid] cannot be ordered by inhibition at 50 µM: greater than 50% for the first, greater than 50% for the second.

`COC(=O)c1cccc(C#CN(Cc2ccc3c(ccn3C)c2)S(=O)(=O)c2ccc3occc3c2)c1-n1cccc1` [Example 338, Methyl 3-((N-((1-methyl-1H-indol-5-yl)methyl)benzofuran-5-sulfonamido)ethynyl)-2-(1H-pyrrol-1-yl)benzoate] and `O=C(O)c1ccc(N2CC3(C2)CN(c2cccc(C(=O)O)c2-n2cccc2)C3)cc1` [Compound 24, 3-(6-(4-carboxylphenyl)-2,6-diazaspiro[3.3]heptan-2-yl)-2-(1H-pyrrol-1-yl)benzoic acid] cannot be ordered by inhibition at 50 µM: less than 10% for the first, less than 10% for the second.

Same assay, conditions: Homo sapiens, C6661, 72 h, read-out: C666-1 cell viability single concentration (50 μM) inhibition rate, Ratio* (Inh %)

`O=C(O)c1cccc(C#CN(Cc2ccccc2)S(=O)(=O)c2ccc3occc3c2)c1-n1cccc1` [Example 331, Lithium 3-((N-benzylbenzofuran-5-sulfonamido)ethynyl)-2-(1H-pyrrol-1-yl)benzoate] gave an inhibition at 50 µM of less than 10%.
